Laboratory results reported in US10385065B2, “Antibacterial compounds” (priority 2014, dated 2019).
Converted amounts (≈) assume the structure as drawn. Read-outs that look alike come from different tables or passages of the source.

Columns and labels:
[1] = tested on: Staphylococcus aureus ATCC 29213; assay: MIC, broth microdilution, S. aureus ATCC 29213; format: cell-based
[2] = tested on: Escherichia coli ATCC 25922; assay: MIC, broth microdilution, E. coli ATCC 25922; format: cell-based; settings: ATCC25922, Table 1, wild type strain
[3] = tested on: S. aureus NRS482 MRSA FQ resistant; assay: MIC, S. aureus NRS482; format: cell-based; settings: Staphylococcus aureus; Table 2
[4] = tested on: S. aureus (MRSA) ATCC 43300; assay: MIC, S. aureus ATCC 43300; format: cell-based; settings: Staphylococcus aureus; Table 2; read-out: MIC S. aureus (MRSA) ATCC 43300 Heterogeneous MRSA strain
S. aureus NRS1 MRSA = assay: MIC, S. aureus NRS1; format: cell-based; settings: Staphylococcus aureus; Table 2; read-out: MIC S. aureus NRS1 MRSA AMG & TET resistant
S. aureus NRS70 MRSA = assay: MIC, S. aureus NRS70; format: cell-based; settings: Staphylococcus aureus; Table 2
S. aureus NRS100 MRSA = assay: MIC, S. aureus NRS100; format: cell-based; settings: Staphylococcus aureus; Table 2
[5] = tested on: S. aureus SACPX1-SP25 MSSA - FQ resistant; assay: microbe, parasite or virus in culture; format: cell-based; settings: Staphylococcus aureus, ATCC 29213 / MSSA, read-out: MIC S. aureus SACPX1-SP25 MSSA - FQ resistant (isogenic mutant of ATCC 29213)
[6] = tested on: S. aureus NRS127 MRSA LZD resistant; assay: MIC, S. aureus NRS127; format: cell-based; settings: Staphylococcus aureus; Table 2
[7] = tested on: S. aureus VRS1 MRSA VAN resistant; assay: MIC, S. aureus VRS1; format: cell-based; settings: Staphylococcus aureus, Table 2
[8] = tested on: S. aureus NRS107 MUP resistant; assay: MIC, S. aureus NRS107; format: cell-based; settings: Staphylococcus aureus, Table 2
[9] = tested on: S. epidermidis NRS101 MRSE; assay: MIC, S. epidermidis NRS101; format: cell-based; settings: Staphylococcus epidermidis; Table 2; read-out: MIC S. epidermidis NRS101 MRSE AMG, ERY resistant
[10] = tested on: Enterococcus faecium ATCC 19434; assay: MIC, E. faecium ATCC 19434; format: cell-based; settings: ATCC19434, Table 2
[11] = tested on: Streptococcus pneumoniae ATCC BAA-255; assay: MIC, S. pneumoniae ATCC BAA-255; format: cell-based; settings: ATCCBAA255, Table 2
[12] = tested on: Haemophilus influenzae ATCC 49247; assay: MIC, H. influenzae ATCC 49247; format: cell-based; settings: ATCC49247, Table 4
[13] = tested on: Neisseria gonorrhoeae ATCC 49226; assay: MIC, N. gonorrhoeae ATCC 49226; format: cell-based; settings: ATCC49226, Table 4, 24 h incubation
[14] = tested on: Neisseria meningitidis ATCC 13090; assay: MIC, N. meningitidis ATCC 13090; format: cell-based; settings: ATCC13090, Table 4, 24 h incubation
[15] = tested on: Mycobacterium smegmatis ATCC 19420; assay: MIC, M. smegmatis ATCC 19420; format: cell-based; settings: Mycolicibacterium smegmatis, ATCC19420; Table 4, 72 h incubation
[16] = tested on: human hepatic cell line (HepG2 ATCC HB-8065); assay: Human cell viability assay (CellTiter-Glo), HepG2; format: cell-based; settings: read-out: IC50 values against HepG2
Procedure, shortened: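 HepG2 seeded at 20,000 cells/well, then after 24 h given two-fold serial dilutions (1-128 μg/mL, 1% DMSO) in DMEM with 0.001% FBS and 0.3% albumin. After 24 h at 37 °C, ATP luminescence (CellTiter-Glo) read; IC50 is the concentration halving viability.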

[17] = tested on: Moraxella catarrhalis ATCC 25240; assay: MIC, M. catarrhalis ATCC 25240; format: cell-based; settings: ATCC25240, Table 4
[18] = tested on: Legionella pneumophila ATCC 33152; assay: microbe, parasite or virus in culture; format: cell-based; settings: ATCC33152, 48 h, read-out: MIC Legionella pneumophila ATCC 33152
[19] = tested on: S. aureus NRS106 (fluoroquinolone susceptible MSSA); assay: MIC, S. aureus NRS106; format: cell-based; settings: Staphylococcus aureus
[20] = tested on: S. aureus NRS384 (MRSA - fluoroquinolone susceptible); assay: MIC, S. aureus NRS384; format: cell-based; settings: Staphylococcus aureus, read-out: MIC S. aureus NRS384
S. aureus NRS74 = assay: MIC, S. aureus NRS74; format: cell-based; settings: Staphylococcus aureus, MRSA / NRS 74, read-out: MIC S. aureus NRS74
S. aureus NRS108 = assay: MIC, S. aureus NRS108; format: cell-based; settings: Staphylococcus aureus, MRSA / NRS 108, read-out: MIC S. aureus NRS108
S. aureus NRS271 = assay: MIC, S. aureus NRS271; format: cell-based; settings: Staphylococcus aureus, MRSA / NRS 271, read-out: MIC S. aureus NRS271
S. aureus VRS8 = assay: MIC, S. aureus VRS8; format: cell-based; settings: Staphylococcus aureus, MRSA, read-out: MIC S. aureus VRS8
[21] = tested on: S. aureus SACPX1-SP28 (MSSA - fluoroquinolone resistant); assay: MIC, S. aureus SACPX1-SP28; format: cell-based; settings: Staphylococcus aureus, read-out: MIC S. aureus SACPX1-SP28
[22] = tested on: Mycobacterium tuberculosis H37Rv; assay: MIC, M. tuberculosis H37Rv; format: cell-based; settings: virulent tuberculosis-causative strain
[23] = tested on: all strains of S. aureus tested; assay: Antibacterial susceptibility, all S. aureus strains tested; format: cell-based, Staphylococcus aureus; settings: including strains resistant to fluoroquinolone and other antibiotics
[24] = ATCC29213, Table 1, wild type strain, read-out: MIC S. aureus ATCC 29213
[25] = ATCC 29213 / MSSA, Table 2, read-out: MIC S. aureus (MSSA) ATCC 29213 CLSI control strain
[26] = HepG2, 24 h incubation, tested over 1-128 μg/mL

Compound	MIC [1, 24] [µg/mL]	MIC [1, 25] [µg/mL]	MIC [2] [µg/mL]	MIC [3] [µg/mL]	MIC [4] [µg/mL]	MIC (S. aureus NRS1 MRSA) [µg/mL]	MIC (S. aureus NRS70 MRSA) [µg/mL]	MIC (S. aureus NRS100 MRSA) [µg/mL]	MIC [5] [µg/mL]	MIC [6] [µg/mL]	MIC [7] [µg/mL]	MIC [8] [µg/mL]	MIC [9] [µg/mL]	MIC [10] [µg/mL]	MIC [11] [µg/mL]	MIC [12] [µg/mL]	MIC [13] [µg/mL]	MIC [14] [µg/mL]	IC50 [16, 26] [µg/mL]	MIC [17] [µg/mL]	also measured
Cc1c(-c2ccc3[nH]ncc3c2)ccc2c3ocnc3c(=O)n(C3CC3)c12 [Compound 39, 5-cyclopropyl-7-(1H-indazol-5-yl)-6-methyl-oxazolo[4,5-c]quinolin-4-one]	< 1	< 1	1 to 10 (≈ 2.81 to 28.1 µM)	< 1	< 1	< 1	< 1	< 1	< 1	< 1	< 1	< 1	< 1	10 to 100 (≈ 28.1 to 281 µM)	< 1	< 1	< 1	< 1	10 to 100 (≈ 28.1 to 281 µM)		MIC [15]: 1 to 10 µg/mL (≈ 2.81 to 28.1 µM)
Cc1c(-c2cc(F)c(N)cc2F)ccc2c3ocnc3c(=O)n(C3CC3)c12 [Compound 1, 7-(4-amino-2,5-difluoro-phenyl)-5-cyclopropyl-6-methyl-oxazolo[4,5-c]quinolin-4-one]	< 1	< 1	> 100	< 1	< 1	< 1	< 1	< 1		< 1	< 1	< 1	< 1	> 100	1 to 10 (≈ 2.72 to 27.2 µM)	< 1	< 1	< 1	> 100	< 1	MIC ([5]; Table 2): < 1 µg/mL; MIC [18]: < 1 µg/mL; MIC [15]: < 1 µg/mL; MIC [19]: < 1 µg/mL; MIC [20]: < 1 µg/mL; MIC (S. aureus NRS74): < 1 µg/mL; MIC (S. aureus NRS108): < 1 µg/mL; MIC (S. aureus NRS271): < 1 µg/mL; MIC (S. aureus VRS8): < 1 µg/mL; MIC [21]: < 1 µg/mL; MIC [22]: < 8 µg/mL; activity against all strains of S. aureus tested [23]: excellent activity
CN[C@H](CC(C)C)C(=O)N[C@H]1C(=O)N[C@@H](CC(N)=O)C(=O)N[C@H]2C(=O)N[C@H]3C(=O)N[C@H](C(=O)N[C@H](C(=O)O)c4cc(O)cc(O)c4-c4cc3ccc4O)[C@H](O)c3ccc(c(Cl)c3)Oc3cc2cc(c3O[C@@H]2O[C@H](CO)[C@@H](O)[C@H](O)[C@H]2O[C@H]2C[C@](C)(N)[C@H](O)[C@H](C)O2)Oc2ccc(cc2Cl)[C@H]1O [Vancomycin, reference compound]		< 1		1 to 10 (≈ 0.69 to 6.9 µM)	1 to 10 (≈ 0.69 to 6.9 µM)	1 to 10 (≈ 0.69 to 6.9 µM)	< 1	1 to 10 (≈ 0.69 to 6.9 µM)		1 to 10 (≈ 0.69 to 6.9 µM)	1 to 10 (≈ 0.69 to 6.9 µM)	1 to 10 (≈ 0.69 to 6.9 µM)	1 to 10 (≈ 0.69 to 6.9 µM)	< 1	< 1	10 to 100 (≈ 6.9 to 69 µM)					MIC ([5]; Table 2): < 1 µg/mL; IC50 ([16]; HepG2, 24 h): 10 to 100 µg/mL (≈ 6.9 to 69 µM)
Cc1onc(-c2ccccc2)c1C(=O)N[C@@H]1C(=O)N2[C@@H]1SC(C)(C)[C@@H]2C(=O)O [Oxacillin, reference compound]		< 1			< 1	> 100	10 to 100 (≈ 24.9 to 249 µM)	> 100	1 to 10 (≈ 2.49 to 24.9 µM)	< 1	< 1	< 1	1 to 10 (≈ 2.49 to 24.9 µM)	10 to 100 (≈ 24.9 to 249 µM)		> 100			10 to 100 (≈ 24.9 to 249 µM)		
Cc1nc2c(=O)n(C3CC3)c3c(C)c(-c4ccc(CN)c(F)c4)ccc3c2o1 [Compound 36, 7-[4-(aminomethyl)-3-fluoro-phenyl]-5-cyclopropyl-2,6-dimethyl-oxazolo[4,5-c]quinolin-4-one]	< 1	< 1	1 to 10 (≈ 2.65 to 26.5 µM)	1 to 10 (≈ 2.65 to 26.5 µM)	< 1	> 100	< 1	1 to 10 (≈ 2.65 to 26.5 µM)	1 to 10 (≈ 2.65 to 26.5 µM)	1 to 10 (≈ 2.65 to 26.5 µM)	10 to 100 (≈ 26.5 to 265 µM)	1 to 10 (≈ 2.65 to 26.5 µM)	10 to 100 (≈ 26.5 to 265 µM)	10 to 100 (≈ 26.5 to 265 µM)	1 to 10 (≈ 2.65 to 26.5 µM)	1 to 10 (≈ 2.65 to 26.5 µM)	10 to 100 (≈ 26.5 to 265 µM)	< 1	> 100	1 to 10 (≈ 2.65 to 26.5 µM)	MIC [18]: < 1 µg/mL
C[C@H]1COc2c(N3CCN(C)CC3)c(F)cc3c(=O)c(C(=O)O)cn1c23 [Levofloxacin, reference compound]		< 1		1 to 10 (≈ 2.77 to 27.7 µM)	< 1	10 to 100 (≈ 27.7 to 277 µM)	< 1	< 1	1 to 10 (≈ 2.77 to 27.7 µM)	> 100	10 to 100 (≈ 27.7 to 277 µM)	< 1	< 1	1 to 10 (≈ 2.77 to 27.7 µM)	< 1	< 1	< 1	< 1	> 100	< 1	MIC [18]: < 1 µg/mL
